Values quoted from earlier work as cited in patent US8350024B2, “Sugar derivatives and application of same” (priority 2006, dated 2013).

Tested on: herpes simplex virus type 2
Conditions: conventional drug, comparison value

In the case of `Nc1nc2c(ncn2COCCO)c(=O)[nH]1` [acyclovir], the selection index is given as “about 800”.
